Measurements as given in patent publication US20240238383A1, “ANTI-OXIDANT CONTAINING PARTICLES AND METHODS OF USE” (University of lowa Research Foundation, priority 2021, published 2024).
“Also recorded” adds a separate entry of the source.

Tests used:
Col8a2^L450W mice = details: 7 mg/ml in water vs water alone; cited from earlier work
cultured FECD CECs = experiment: RSL3/erastin-induced ferroptosis assay, cell viability by MTS, cultured FECD CECs; format: cell-based, human
Description: (§1) FIGS. 4A-4C. FECD CECs are more susceptible to ferroptosis than B4G12 control CECs. (A) Basal lipid peroxidation, as measured by C11 BODIPY, is 57% higher in cultured FECD CECs (N=3) than B4G12 cells (N=3). […] Cultured FECD CECs (N=6) also have 4.7-fold more TFR1 mRNA than B4G12 CECs (N=9), normalized to 18S. (C) Cultured FECD CECs (N=3) and B4G12 cells (N=3) were treated with 1 μM RSL3 to induce cell death via Fe-dependent ferroptosis. The cells were also treated with 100 μM of a Fe chelator, deferoxamine (DFO). Cell viability was measured using MTS assays over 8 hours.
FIGS. 5A-5B. FECD-associated ferroptosis is prevented by ubiquinol nanoparticles (NPs) and SOD2 supplementation. […] After incubating another 24 hours (68 hours total), cell viability in each culture was quantified using MTS assays.
(§2) Basal levels of lipid peroxidation and cytosolic Fe are higher in human FECD CECs than control CECs. […] One experiment assessed lipid peroxidation directly. Cultured FECD CECs and control CECs (B4G12 cells) were labeled with BODIPY and intensity was measured using flow cytometry. […] To determine whether Fe trafficking is affected in the context of FECD, TFR1 was quantified, which has been identified as an indicator of ferroptosis (Stockwell et al., 2017; Feng et al., 2020). […]

B4G12 CECs = experiment: RSL3/erastin-induced ferroptosis / cell death assay, cell viability by MTS, B4G12 CECs; format: cell-based, human
Description: as §1
FIGS. 8A-8B. Nanoparticle targeting and efficacy. […] FITC-anti-αvβ3 labeled cells were detected and counted by flow cytometry and compared to a FITC-IgG control as well as unlabeled cells. […] After incubating another 24 hours (68 hours total), cell viability in each culture was quantified using MTS assays. […]
as §2

[1] = test system: ex vivo human donor CEC tissues; experiment: Mitochondrial respiration stress testing (extracellular flux analysis of O2 consumption, Seahorse) of donor CEC tissues stored in Optisol-GS; format: cell-based
Description: FIGS. 3A-3B. Ubiquinol increases mitochondrial function under oxidative stress. (A) Ex vivo human donor CECs stored in corneal storage media (Optisol-GS, Bausch+Lomb) are exposed to 3-fold greater O2 levels than in vivo CECs. Extracellular flux analysis of O2 consumption was performed in transplant-suitable ex vivo human donor CEC tissues stored for 12 days (average) in media supplemented with 10 μM free ubiquinol (dissolved in ethanol at 37° C.) for the last 5 days of storage (N=13) compared to same-donor controls (N=13). […] (B) The presence of αvβ3 on B4G12 CECs (N=3) was confirmed, indicating cRGD NPs will be a suitable delivery system for getting ubiquinol into CECs. FITC-anti-αvβ3 labeled cells were detected and counted by flow cytometry and compared to a FITC-IgG control as well as unlabeled cells. Dashed lines=injections of oligomycin (0), carbonyl cyanide-p-trifluoromethoxy-phenyl-hydrazone (F), antimycin A/rotenone (R/A). Error bars=SEM. ****P<0.0001. SRC, spare respiratory capacity.
Supplementing Optisol-GS with free ubiquinol increases mitochondrial function in donor CECs. Mitochondrial respiration stress testing (extracellular flux analysis of O2 consumption, Seahorse XFe24, Agilent) was performed in transplant-suitable ex vivo human donor CEC tissues stored for 12 days (average) in media supplemented with 10 μm free ubiquinol (dissolved in ethanol at 37 °C) for the last 5 days of storage compared to same-donor ethanol-only controls (N=13 each) (Greiner et al., 2015). […] Although free ubiquinol improved CEC mitochondrial function, ethanol and heat were required to bring it into solution and it was impractical to handle in standard industry conditions. Therefore, ubiquinol can be used to rescue mitochondrial function from storage-related oxidative stress but needs increased delivery. Given the positive impact of ubiquinol treatment on CECs stored at the end of conventional storage (12-14 days), increasing ubiquinol delivery may permit testing for benefit at extended PT (21 days, a 50% increase in PT).

[2] = cited from earlier work
[3] = Optisol-GS at 4° C. over 4 days
Description: Samples of Optisol-GS are collected daily. Concentrations (μg drug/total protein) of ubiquinol and its oxidized form ubiquinone are measured using HPLC. Coenzyme Q9 (CoQ9) is the internal standard.

[4] = 10 μM free ubiquinol for last 5 days of 12 days (average) storage, vs same-donor controls, N=13

## CC(=O)N[C@@H](CS)C(=O)O [NAC, N-Acetyl-L-cysteine]
Col8a2^L450W mice
  CEC death associated with ER stress and oxidative stress: prevented CEC death
  clinical markers of CEC health: increase clinical markers of CEC health

## COC(=O)c1ccc([C@@H]2c3[nH]c4ccccc4c3C[C@@H](C(=O)OC)N2C(=O)CCl)cc1 [RSL3]
Cultured FECD CECs; cultured FECD CECs
  sensitivity of cells to induced ferroptosis: sensitive
B4G12 CECs
  sensitivity of cells to induced ferroptosis: sensitive

## COc1c(O)c(C)c(C/C=C(\C)CC/C=C(\C)CC/C=C(\C)CC/C=C(\C)CC/C=C(\C)CC/C=C(\C)CC/C=C(\C)CC/C=C(\C)CC/C=C(\C)CCC=C(C)C)c(O)c1OC [free ubiquinol, ubiquinol]
[1]; [4]
  increase in maximal respiration: 93%
  increase in spare respiratory capacity: 174%
[1]; free ubiquinol in corneal storage media vs controls
  mitochondrial respiration / mitochondrial function: enhance mitochondrial function; also recorded: increased mitochondrial respiration compared to controls; also recorded: significantly increased mitochondrial respiration and spare respiratory capacity versus controls
[2]
  solubility in water / aqueous media: practically insoluble in water; also recorded: poorly soluble in aqueous media
Cultured FECD CECs; antioxidant at 20 h, 1 μM RSL3 after 24 h, read after another 24 h
  prevention of ferroptosis (cell viability, MTS): little efficacy
[3]
  ubiquinol remaining: 69.3%
